# Source: the supplement of paper PMC10307832
# Legend:
# Assay in all cases: relative viability (nuclei count vs DMSO), 5 days (fraction); higher = more cells survive
# [1] = test system: NCI-H1915
# Procedure, shortened: (§1)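 Medians of duplicate plates are given as relative viability. That measure is the nuclei count in treated wells divided by the count in vehicle wells. Counts were taken on 4× images of lung cancer cell lines in 1536-well plates, 5 days after pin-tool dosing the day after seeding with one drug alone or a fixed anchor-drug dose plus five library-drug doses (not always all listed) in √10 steps.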
# [2] = test system: PC-14
# Procedure, shortened: as §1
# [3] = test system: HCC-366
# Procedure, shortened: as §1
# [4] = test system: LXF-289
# Procedure, shortened: as §1
# [5] = test system: HARA
# Procedure, shortened: as §1
# [6] = test system: NCI-H1793
# Procedure, shortened: as §1
# [7] = test system: NCI-H2009
# Procedure, shortened: as §1
# [8] = test system: NCI-H1975
# Procedure, shortened: as §1
# [9] = test system: NCI-H2405
# Procedure, shortened: as §1
# [10] = test system: NCI-H460
# Procedure, shortened: as §1
# [11] = test system: HCC-15
# Procedure, shortened: as §1
# [12] = test system: SK-LU-1
# Procedure, shortened: as §1
# [13] = test system: NCI-H441
# Procedure, shortened: as §1
# [14] = test system: NCI-H3122
# Procedure, shortened: as §1
# [15] = test system: A-427
# Procedure, shortened: as §1
# [16] = test system: PC-3 [JPC-3]
# Procedure, shortened: as §1
# [17] = test system: NCI-H1755
# Procedure, shortened: as §1
# [18] = test system: UMC-11
# Procedure, shortened: as §1
# [19] = test system: NCI-H1437
# Procedure, shortened: as §1
# [20] = test system: H3255
# Procedure, shortened: as §1
# [21] = test system: NCI-H650
# Procedure, shortened: as §1
# [22] = test system: NCI-H2023
# Procedure, shortened: as §1
# [23] = test system: NCI-H596
# Procedure, shortened: as §1
smiles,measurement,setting,value
Cc1cnc(-c2cnc(NCCNc3ccc(C#N)cn3)nc2-c2ccc(Cl)cc2Cl)[nH]1 + CC(=O)c1c(C)c2cnc(Nc3ccc(N4CCNCC4)cn3)nc2n(C2CCCC2)c1=O [Palbociclib] (partner 0.5 µM),relative viability,[1]; first compound 0.08 µM,0.547
same,relative viability,[1]; first compound 0.8 µM,0.571
same,relative viability,[1]; first compound 2.53 µM,0.601
same,relative viability,[2]; first compound 0.08 µM,0.572
same,relative viability,[2]; first compound 0.253 µM,0.503
same,relative viability,[2]; first compound 0.8 µM,0.614
same,relative viability,[2]; first compound 2.53 µM,0.323
same,relative viability,[3]; first compound 0.08 µM,0.404
same,relative viability,[3]; first compound 0.253 µM,0.331
same,relative viability,[3]; first compound 0.8 µM,0.391
same,relative viability,[3]; first compound 2.53 µM,0.312
same,relative viability,[4]; first compound 0.08 µM,0.66
same,relative viability,[4]; first compound 0.253 µM,0.565
same,relative viability,[4]; first compound 0.8 µM,0.571
same,relative viability,[4]; first compound 2.53 µM,0.682
same,relative viability,[5]; first compound 0.08 µM,0.296
same,relative viability,[5]; first compound 0.253 µM,0.288
same,relative viability,[5]; first compound 0.8 µM,0.262
same,relative viability,[5]; first compound 2.53 µM,0.241
same,relative viability,[6]; first compound 0.08 µM,0.336
same,relative viability,[6]; first compound 0.253 µM,0.288
same,relative viability,[6]; first compound 0.8 µM,0.282
same,relative viability,[6]; first compound 2.53 µM,0.386
same,relative viability,[7]; first compound 0.08 µM,0.256
same,relative viability,[7]; first compound 0.253 µM,0.208
same,relative viability,[7]; first compound 0.8 µM,0.29
same,relative viability,[7]; first compound 2.53 µM,0.225
same,relative viability,[8]; first compound 0.08 µM,0.69
same,relative viability,[8]; first compound 0.253 µM,0.519
same,relative viability,[8]; first compound 0.8 µM,0.487
same,relative viability,[8]; first compound 2.53 µM,0.301
same,relative viability,[9]; first compound 0.08 µM,0.571
same,relative viability,[9]; first compound 0.253 µM,0.452
same,relative viability,[9]; first compound 0.8 µM,0.57
same,relative viability,[9]; first compound 2.53 µM,0.495
same,relative viability,[10]; first compound 0.08 µM,0.154
same,relative viability,[10]; first compound 0.253 µM,0.0849
same,relative viability,[10]; first compound 0.8 µM,0.135
same,relative viability,[10]; first compound 2.53 µM,0.146
same,relative viability,[11]; first compound 0.08 µM,0.689
same,relative viability,[11]; first compound 0.253 µM,0.543
same,relative viability,[11]; first compound 0.8 µM,0.69
same,relative viability,[11]; first compound 2.53 µM,0.724
same,relative viability,[12]; first compound 0.08 µM,0.417
same,relative viability,[12]; first compound 0.253 µM,0.474
same,relative viability,[12]; first compound 0.8 µM,0.337
same,relative viability,[12]; first compound 2.53 µM,0.524
same,relative viability,[13]; first compound 0.08 µM,0.224
same,relative viability,[13]; first compound 0.8 µM,0.258
same,relative viability,[13]; first compound 2.53 µM,0.185
same,relative viability,[14]; first compound 0.08 µM,0.178
same,relative viability,[14]; first compound 0.8 µM,0.181
same,relative viability,[14]; first compound 2.53 µM,0.188
same,relative viability,[15]; first compound 0.08 µM,0.537
same,relative viability,[15]; first compound 0.253 µM,0.539
same,relative viability,[15]; first compound 0.8 µM,0.567
same,relative viability,[15]; first compound 2.53 µM,0.563
same,relative viability,[16]; first compound 0.08 µM,0.533
same,relative viability,[16]; first compound 0.253 µM,0.488
same,relative viability,[16]; first compound 0.8 µM,0.543
same,relative viability,[16]; first compound 2.53 µM,0.503
same,relative viability,[17]; first compound 0.08 µM,0.418
same,relative viability,[17]; first compound 0.253 µM,0.443
same,relative viability,[17]; first compound 0.8 µM,0.446
same,relative viability,[17]; first compound 2.53 µM,0.438
same,relative viability,[18]; first compound 0.08 µM,0.354
same,relative viability,[18]; first compound 0.253 µM,0.346
same,relative viability,[18]; first compound 0.8 µM,0.364
same,relative viability,[18]; first compound 2.53 µM,0.401
same,relative viability,[19]; first compound 0.08 µM,0.355
same,relative viability,[19]; first compound 0.253 µM,0.303
same,relative viability,[19]; first compound 0.8 µM,0.281
same,relative viability,[19]; first compound 2.53 µM,0.285
same,relative viability,[20]; first compound 0.08 µM,0.299
same,relative viability,[20]; first compound 0.253 µM,0.34
same,relative viability,[20]; first compound 0.8 µM,0.317
same,relative viability,[20]; first compound 2.53 µM,0.306
same,relative viability,[21]; first compound 0.08 µM,0.311
same,relative viability,[21]; first compound 0.253 µM,0.334
same,relative viability,[21]; first compound 0.8 µM,0.317
same,relative viability,[21]; first compound 2.53 µM,0.351
same,relative viability,[22]; first compound 0.08 µM,0.41
same,relative viability,[22]; first compound 0.253 µM,0.344
same,relative viability,[22]; first compound 0.8 µM,0.387
same,relative viability,[22]; first compound 2.53 µM,0.541
Cc1cnc(-c2cnc(NCCNc3ccc(C#N)cn3)nc2-c2ccc(Cl)cc2Cl)[nH]1 + NC(=O)Nc1cc(-c2cccc(F)c2)sc1C(=O)N[C@H]1CCCNC1 [AZD7762] (partner 0.2 µM),relative viability,[1]; first compound 0.08 µM,0.692
same,relative viability,[1]; first compound 0.8 µM,0.675
same,relative viability,[1]; first compound 2.53 µM,0.644
same,relative viability,[2]; first compound 0.08 µM,0.347
same,relative viability,[2]; first compound 0.253 µM,0.316
same,relative viability,[2]; first compound 0.8 µM,0.365
same,relative viability,[2]; first compound 2.53 µM,0.392
same,relative viability,[3]; first compound 0.08 µM,0.284
same,relative viability,[3]; first compound 0.253 µM,0.202
same,relative viability,[3]; first compound 0.8 µM,0.197
same,relative viability,[3]; first compound 2.53 µM,0.0746
same,relative viability,[4]; first compound 0.08 µM,1.16
same,relative viability,[4]; first compound 0.253 µM,1.05
same,relative viability,[4]; first compound 0.8 µM,1.18
same,relative viability,[4]; first compound 2.53 µM,1.19
same,relative viability,[5]; first compound 0.08 µM,0.297
same,relative viability,[5]; first compound 0.253 µM,0.191
same,relative viability,[5]; first compound 0.8 µM,0.37
same,relative viability,[5]; first compound 2.53 µM,1
same,relative viability,[6]; first compound 0.08 µM,0.735
same,relative viability,[6]; first compound 0.253 µM,0.379
same,relative viability,[6]; first compound 0.8 µM,0.385
same,relative viability,[6]; first compound 2.53 µM,0.461
same,relative viability,[8]; first compound 0.08 µM,0.818
same,relative viability,[8]; first compound 0.253 µM,0.583
same,relative viability,[8]; first compound 0.8 µM,0.575
same,relative viability,[8]; first compound 2.53 µM,0.506
same,relative viability,[9]; first compound 0.08 µM,0.758
same,relative viability,[9]; first compound 0.253 µM,0.595
same,relative viability,[9]; first compound 0.8 µM,0.744
same,relative viability,[9]; first compound 2.53 µM,0.333
same,relative viability,[10]; first compound 0.08 µM,0.579
same,relative viability,[10]; first compound 0.8 µM,0.557
same,relative viability,[10]; first compound 2.53 µM,0.541
same,relative viability,[11]; first compound 0.08 µM,1.17
same,relative viability,[11]; first compound 0.253 µM,0.968
same,relative viability,[11]; first compound 0.8 µM,1.2
same,relative viability,[11]; first compound 2.53 µM,1.13
same,relative viability,[13]; first compound 0.08 µM,1.02
same,relative viability,[13]; first compound 0.8 µM,0.967
same,relative viability,[13]; first compound 2.53 µM,0.993
same,relative viability,[14]; first compound 0.08 µM,0.995
same,relative viability,[14]; first compound 0.8 µM,1.03
same,relative viability,[14]; first compound 2.53 µM,0.98
same,relative viability,[15]; first compound 0.08 µM,0.838
same,relative viability,[15]; first compound 0.253 µM,0.602
same,relative viability,[15]; first compound 0.8 µM,0.692
same,relative viability,[15]; first compound 2.53 µM,0.714
same,relative viability,[16]; first compound 0.08 µM,0.805
same,relative viability,[16]; first compound 0.253 µM,0.761
same,relative viability,[16]; first compound 0.8 µM,0.799
same,relative viability,[16]; first compound 2.53 µM,0.725
same,relative viability,[17]; first compound 0.08 µM,0.459
same,relative viability,[17]; first compound 0.253 µM,0.445
same,relative viability,[17]; first compound 0.8 µM,0.404
same,relative viability,[17]; first compound 2.53 µM,0.443
same,relative viability,[23]; first compound 0.08 µM,1.3
same,relative viability,[23]; first compound 0.253 µM,0.974
same,relative viability,[23]; first compound 0.8 µM,1.09
same,relative viability,[23]; first compound 2.53 µM,1.01
same,relative viability,[19]; first compound 0.08 µM,1.17
same,relative viability,[19]; first compound 0.253 µM,1.06
same,relative viability,[19]; first compound 0.8 µM,1.06
same,relative viability,[19]; first compound 2.53 µM,1.01
same,relative viability,[20]; first compound 0.08 µM,0.996
same,relative viability,[20]; first compound 0.253 µM,0.887
same,relative viability,[20]; first compound 0.8 µM,0.879
same,relative viability,[20]; first compound 2.53 µM,0.888
same,relative viability,[21]; first compound 0.08 µM,0.979
same,relative viability,[21]; first compound 0.253 µM,0.872
same,relative viability,[21]; first compound 0.8 µM,0.892
same,relative viability,[21]; first compound 2.53 µM,1.03
